Here are results for five molecules from article PMC3407089, “Influence of GABAA Receptor α Subunit Isoforms on the Benzodiazepine Binding Site” (PLoS ONE, 2012).

The subject of test [1] is α6N204Cβ2γ2 GABAA receptor. In words: Covalent reaction at the functional level (two-electrode voltage clamp, Xenopus oocytes). The test is classed as cell-based. The settings on record: 1 µM Abecarnil at GABA EC2–5, naive oocytes. Here is the method: (§1) Capped cRNAs were synthesized (Ambion, Austin, TX, USA) from the linearized plasmids with a cytomegalovirus promotor (pCMVvectors) containing the different subunits, respectively. A poly-A tail of about 400 residues was added to each transcript using yeast poly- A polymerase (United States Biologicals, Cleveland, OH, USA). The concentration of the cRNA was quantified on a formaldehyde gel using Radiant Red stain (Bio-Rad) for visualization of the RNA. Known concentrations of RNA ladder (Invitrogen) were loaded as standard on the same gel. cRNAs were precipitated in ethanol/isoamylalcohol 19∶ 1, the dried pellet dissolved in water and stored at −80°C. cRNA mixtures were prepared from these stock solutions and stored at −80°C. Xenopus laevis oocytes were prepared, injected and defolliculated as described previously, [39]. They were injected with 50 nL of the cRNA solution containing wild type or mutated α1 or α2, α3, α5, α6 and wild type β2 and γ2 subunits at a concentration of 10 nM : 10 nM : 50 nM [40] and then incubated in modified Barth’s solution at +18°C for at least 24 h before the measurements.
(§2) Currents were measured using a modified two-electrode voltage clamp amplifier Oocyte clamp OC-725 (Warner Instruments) in combination with a XY-recorder (90% response time 0.1s) or digitized at 100 Hz using a PowerLab 2/20 (AD Instruments) using the computer programs Chart (ADInstruments GmbH, Spechbach, Germany). Tests with a model oocyte were performed to ensure linearity in the larger current range. The response was linear up to 15 µA.
(§3) Electrophysiological experiments were performed by using the two-electrode voltage clamp method at a holding potential of −80 mV. The perfusion medium contained 90 mM NaCl, 1 mM KCl, 1 mM MgCl2, 1 mM CaCl2, and 5 mM Na-HEPES (pH 7.4) and was applied by gravity flow 6 ml/min. The perfusion medium was applied through a glass capillary with an inner diameter of 1.35 mm, the mouth of which was placed about 0.4 mm from the surface of the oocyte. Allosteric modulation via the benzodiazepine site was measured at a GABA concentration eliciting 2–5% of the maximal GABA current amplitude. GABA was applied for 20 s alone or in combination with allosteric compound. 6 ml of the covalent reacting compound was applied to the oocyte and incubated for 3 min while stopping the flow of the perfusion medium. Modulation of GABA currents was expressed as (I(modulator + GABA)/IGABA –1) * 100%. The perfusion system was cleaned between drug applications by washing with DMSO to avoid contamination.

For test [2], the system named is α6S203Cβ2γ2 GABAA receptor. The description is as above. Type of test: cell-based. The following applies: 1 µM Abecarnil at GABA EC2–5, naive oocytes. Here is the method: as §1, §2, §3
The subject of test [3] is α1S204Cβ2γ2 GABAA receptor. The test is described as above. The following applies: 1 µM diazepam at GABA EC2–5, naive oocytes. The test is classed as cell-based. The method, then:
as §1, §2, §3

Test [4] has as its system α3S230Cβ2γ2 GABAA receptor. The test is described as above. The test is classed as cell-based. The settings on record: 1 µM diazepam at GABA EC2–5, naive oocytes. The method, then:
as §1, §2, §3

The subject of test [5] is α3T231Cβ2γ2 GABAA receptor. The test is described as above. The test is classed as cell-based. The settings on record: 1 µM diazepam at GABA EC2–5, naive oocytes. The method, then:
as §1, §2, §3

Test [6] concerns α5S209Cβ2γ2 GABAA receptor. The description is as above. The settings on record: 1 µM diazepam at GABA EC2–5, naive oocytes. Type of test: cell-based. Here is the method: as §1, §2, §3
For test [7], the system named is α5T208Cβ2γ2 GABAA receptor. Described as above. The test is classed as cell-based. The following applies: 1 µM diazepam at GABA EC2–5, naive oocytes. The method, then: as §1, §2, §3
Test [8] deals with T1, α5T210Cβ2γ2 GABAA receptor.
T1 construct: expressed in transfected cells; host or cells: Xenopus laevis oocytes (cRNA injection)
Described as above. The test is classed as cell-based. The settings on record: 1 µM diazepam at GABA EC2–5, naive oocytes. The method, then:
as §1, §2, §3

The test system of another test is T2, α6 containing receptors.
T2 construct: expressed in transfected cells; host or cells: Xenopus laevis oocytes (cRNA injection)
Kind of test: Functional modulation of GABA currents (Xenopus oocytes). Type of test: cell-based. The following applies: functional level. The method, then: as §1, with “Xenopus laevis oocytes were prepared, injected and defolliculated as described previously, [39]. They were injected with 50 nL of the cRNA solution containing wild type or mutated α1 or α2, α3, α5, α6 and wild type β2 and γ2 subunits at a concentration of 10 nM : 10 nM : 50 nM [40] and then incubated in modified Barth’s solution at +18°C for at least 24 h before the measurements.” left out
Currents were measured using a modified two-electrode voltage clamp amplifier Oocyte clamp OC-725 (Warner Instruments) in combination with a XY-recorder (90% response time 0.1s) or digitized at 100 Hz using a PowerLab 2/20 (AD Instruments) using the computer programs Chart (ADInstruments GmbH, Spechbach, Germany). […]
Electrophysiological experiments were performed by using the two-electrode voltage clamp method at a holding potential of −80 mV. […] Allosteric modulation via the benzodiazepine site was measured at a GABA concentration eliciting 2–5% of the maximal GABA current amplitude. […] Modulation of GABA currents was expressed as (I(modulator + GABA)/IGABA –1) * 100%. […]

Another test concerns the target T3, α6T205Cβ2γ2 receptor (Rattus norvegicus, UniProt P18508+P30191, T224C).
T3 construct: expressed in transfected cells; host or cells: HEK293 cells (ATCC CRL 1573), membranes
Kind of test: Affinity estimate with [^3H]Ro15–4513. The test is classed as binding. The settings on record: read-out: Estimated affinity. The method, then:
(§4) cDNAs coding for the αx (x = 1, 2, 3, 6), β2, and γ2S subunits DNA (20 µg : 20 µg : 20 µg) per 9 cm diameter dish were transfected in human embryonic kidney (HEK) 293 cells (American Type of Culture Collection, MD, USA, CRL 1573) using the calcium phosphate precipitation technique. For α5 containing receptors β2 was replaced by β1. […] Culturing of cells and membrane preparation were done as described before.
(§5) The properties of the recombinant mutant receptors were only estimated. For this affinity estimate, membranes were re-suspended in phosphate buffer using a Teflon homogenizer. They were incubated in a total volume of 360 µl for 1 h on ice in the presence of [^3H]Ro15–1788 (78.6 Ci/mmol; PerkinElmer Life Sciences). The final protein concentration was 0.1–1 mg of protein/ml. Total binding was measured at 0.5 and 5 nM [^3H]Ro15–1788. Nonspecific binding was determined under the same condition but in the presence of 100 µM unlabeled Ro15–1788 and amounted to less than 10% of total binding, except for α2S206Cβ2γ2 and α5T208Cβ2γ2 where it amounted to 10–17%. Expression levels of α6β2γ2 receptors were estimated with [^3H]Ro15–4513. Membranes were collected by rapid vacuum filtration on GF/C filters. After three washing steps (3 sec each) with 5 ml of phosphate buffer, the filter-retained radioactivity was determined by liquid scintillation counting.

The test system of the next test is T4, α1G207Cβ2γ2 receptors.
T4 construct: expressed in transfected cells; host or cells: HEK293 cells (ATCC CRL 1573), membranes
Kind of test: Radioactive ligand binding. The settings on record: not shown. Here is the method: as §4, §5

For a further test, the system named is T5, α2G207Cβ2γ2 receptors.
T5 construct: expressed in transfected cells; host or cells: HEK293 cells (ATCC CRL 1573), membranes
Kind of test: Radioactive ligand binding. The settings on record: not shown. The method, then:
as §4, §5

T3 sequence (P30191 20-453 T224C): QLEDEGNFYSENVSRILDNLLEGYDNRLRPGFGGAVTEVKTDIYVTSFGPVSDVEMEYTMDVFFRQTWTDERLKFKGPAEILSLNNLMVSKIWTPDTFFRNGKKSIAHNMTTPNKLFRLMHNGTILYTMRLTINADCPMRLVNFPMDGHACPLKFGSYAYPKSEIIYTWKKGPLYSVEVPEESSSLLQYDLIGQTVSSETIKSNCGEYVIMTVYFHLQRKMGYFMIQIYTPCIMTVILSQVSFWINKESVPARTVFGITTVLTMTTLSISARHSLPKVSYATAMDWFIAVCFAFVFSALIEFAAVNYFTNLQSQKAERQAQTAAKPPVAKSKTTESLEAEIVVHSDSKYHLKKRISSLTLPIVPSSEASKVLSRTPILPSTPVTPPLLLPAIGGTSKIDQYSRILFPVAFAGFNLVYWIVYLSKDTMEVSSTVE
T3 sequence (P63138 25-474 partner limits assumed): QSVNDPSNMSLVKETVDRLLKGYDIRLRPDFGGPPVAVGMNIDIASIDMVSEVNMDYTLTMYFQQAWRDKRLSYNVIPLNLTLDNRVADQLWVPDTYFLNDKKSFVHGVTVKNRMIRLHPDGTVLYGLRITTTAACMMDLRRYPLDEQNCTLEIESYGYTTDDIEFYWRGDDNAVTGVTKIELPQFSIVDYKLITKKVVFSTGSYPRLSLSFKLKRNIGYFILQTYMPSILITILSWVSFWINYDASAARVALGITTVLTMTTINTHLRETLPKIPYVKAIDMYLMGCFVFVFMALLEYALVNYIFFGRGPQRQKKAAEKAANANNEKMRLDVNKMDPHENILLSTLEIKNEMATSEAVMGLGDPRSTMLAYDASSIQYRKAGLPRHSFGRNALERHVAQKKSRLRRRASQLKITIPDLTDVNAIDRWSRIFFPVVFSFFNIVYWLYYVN
T3 sequence (P18508 39-466): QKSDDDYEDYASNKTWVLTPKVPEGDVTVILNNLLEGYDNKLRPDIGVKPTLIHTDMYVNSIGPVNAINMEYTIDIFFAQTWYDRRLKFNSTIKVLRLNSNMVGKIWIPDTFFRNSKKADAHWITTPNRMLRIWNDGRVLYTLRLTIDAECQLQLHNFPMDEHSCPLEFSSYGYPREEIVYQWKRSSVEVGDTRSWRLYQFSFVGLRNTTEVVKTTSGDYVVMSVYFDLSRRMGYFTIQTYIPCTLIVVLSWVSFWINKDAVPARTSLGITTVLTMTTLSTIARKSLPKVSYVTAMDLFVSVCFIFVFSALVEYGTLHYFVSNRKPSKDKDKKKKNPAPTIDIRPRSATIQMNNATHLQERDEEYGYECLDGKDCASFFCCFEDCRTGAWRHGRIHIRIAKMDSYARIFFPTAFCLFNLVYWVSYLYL

On to `COCc1c(C(=O)OC(C)C)ncc2[nH]c3ccc(OCc4ccccc4)cc3c12` [Abecarnil, reference compound], for which the “% allosteric modulation, DZ (*1µM Abecarnil was used)” value came to 70±40 % in test [1] and 50±20 % in test [2].
With `CN1C(=O)CN=C(c2ccccc2)c2cc(Cl)ccc21` [DZ, diazepam, reference compound], the “% allosteric modulation, DZ” value in [3] was 126±9%; in [4], 149±44%; in test [5], 88±45%; in [6], 103±3%; in [7], 129±38%; in test [8], 82±14%. For the same molecule, the “Response to diazepam (in words)” value with α6 containing receptors is given as “did not respond”.
Turning to `CCOC(=O)c1ncn2c1CN(C)C(=O)c1cc(N=[N+]=[N-])ccc1-2` [[^3H]Ro15–4513], the Kd at α6T205Cβ2γ2 receptor is 4 nM.
For `CCOC(=O)c1ncn2c1CN(C)C(=O)c1cc(F)ccc1-2` [[^3H]Ro 15–1788], the “High affinity binding (in words)” value in the test with α1G207Cβ2γ2 receptors and in the test with α2G207Cβ2γ2 receptors was “did not confer to the expressed receptors high affinity” throughout.
Take `CN1C(=O)CN=C(c2ccccc2F)c2cc([N+](=O)[O-])ccc21` [[^3H]flunitrazepam, flunitrazepam]: the “High affinity binding (in words)” value in the test on α1G207Cβ2γ2 receptors and with α2G207Cβ2γ2 receptors was “did not confer to the expressed receptors high affinity” in each case.
